Assay [1] concerns CCNE1-amplified OVCAR3 cells. The experiment in a line: Cell growth inhibition of CCNE1-amplified OVCAR3 cells (CellTiter-Glo). The class given is cell-based. Particulars: 6 days. As for the experimental part: Cell Growth Inhibition of CCNE1-Amplified OVCAR3 Cells
OVCAR3 cells were seeded in 96-well plates at 2000 cells/well in 90 μl of RPM11640 growth medium containing 10% FBS and 1% Penicillin Streptomycin, and then incubated at 37° C. overnight. The following day, the test compound was administered to the cells by using 1000× compound stock solution prepared in DMSO at various concentrations. 1000× compound stock solution was first diluted in culturing medium to 10x, then 10 uL compound medium was added to each well in the cell plates. After administration of the compound, the cells were then incubated at 37° C. for 6 days. Upon completion, the plates were equilibrated at room temperature for approximately 10 minutes. 100 ul of CellTiter-Glo® Reagent (Promega) was added to each well. The plates were then incubated at room temperature for 10 minutes and luminescence was recorded by EnSpire plate reader (PerkinElmer).

The test system of assay [2] is Phospho-Rb (Ser807/811) in OVCAR3 cells. In words: Phospho-Rb expression inhibition in OVCAR3 cells quantified by In Cell Western. The class given is cell-based. Particulars: read-out: OVCAR-3 pRb IC50. As for the experimental part:
Phospho-Rb Expression Inhibition in OVCAR3 Cells Quantified by in Cell Western
OVCAR3 cells were obtained from American Type Culture Collection (ATCC, HTB-161). OVCAR3 cells were plated in 96-well plates (VWR #10062-900, or Corning #3904) in 90 uL culture medium at a density of 20,000 cells/well in the RPM11640 growth medium containing 10% FBS and 1% Penicillin Streptomycin, and then incubated at 37° C. overnight. The following day, the test compound was administered to the cells by using 1000× compound stock solution prepared in DMSO at various concentrations. 1000× compound stock solution was first diluted in culturing medium to 10x, then 10 uL compound medium was added to each well in the cell plates. After administration of the compound, the cells were then incubated at 37° C. for 24 hours. Upon completion, the cells were washed with PBS briefly. 150 uL/well of 4% formaldehyde was added and the plates were incubated at room temperature for 20 mins. The cells were washed with PBS briefly, and permeabilized with 150 uL/well of ice cold 100% methanol for 10 mins. The cells were washed with PBS briefly and blocked with 100 uL/well LI-COR blocking buffer for 1 hr at room temperature with gentle shaking. The cells were incubated overnight at 4° C. with 50 uL primary antibody rabbit anti-Phospho-Rb (Ser807/811) (1:500, Cell Signaling, #8516) and anti-Rb (1:200, Santa Cruz, sc-73598) diluted in Intercept Blocking Buffer (LI-COR, #927-60001) containing 0.1% Tween 20. The next day, the cells were washed with 200 uL PBS containing 0.1% Tween 20, 5×5 mins at room temperature with gentle shaking, and incubated with 50 uL secondary antibody, IRDye® 800CW Goat anti-Rabbit IgG (1:1000, LI-COR, #926-32211) and IRDye® 680RD Goat anti-Mouse IgG (1:1000, LI-COR, #926-68070), in LI-COR blocking buffer with 0.2% Tween 20 for 1 hr at room temperature with gentle shaking. The cells were washed with 200 uL PBS containing 0.1% Tween 20, 5×5 mins at room temperature with gentle shaking. The cells were washed with PBS for 5 mins. 100 uL fresh PBS was added to each well and the plates were imaged on a LI-COR Odyssey CLX plate reader.

Where [3] appears, read: Homo sapiens, OVCAR-3, 24 hours.

Like-named read-outs stand apart in the source and are kept apart here. Some results are limits rather than exact numbers.

On to `O=C1NCCCOc2cc(ccn2)Nc2cc([nH]n2)[C@H]2CC[C@H](C2)O1` [Compound 2, (1^1S,1^3R,Z)-2^1H-5,11-dioxa-3,9-diaza-4(4,2)-pyridina-2(3,5)-pyrazola-1(1,3)-cyclopentanacycloundecaphan-10-one], for which the IC50 is above 250 nM in assay [1] (Homo sapiens, OVCAR-3, 144 h) and above 250 nM in assay [2] (setting [3]). With `C[C@@H]1CCC(C)(C)NC(=O)O[C@@H]2CC[C@@H](C2)c2cc([nH]n2)Nc2ccnc(c2)O1` [Compound 112, (1^1S,1^3R,6R,Z)-6,9,9-trimethyl-2^1H-5,12-dioxa-3,10-diaza-4(4,2)-pyridina-2(3,5)-pyrazola-1(1,3)-cyclopentanacyclododecaphan-11-one], the IC50 in assay [1] (Homo sapiens, OVCAR-3, 144 h) is above 250 nM; in assay [2] (setting [3]), 50 to 250 nM.

For the molecule `C[C@@H]1CCC(C)(C)NC(=O)O[C@@H]2CC[C@@H](C2)c2cc([nH]n2)Nc2cncc(c2)O1` [Compound 123, (1^1S,1^3R,6R,Z)-6,9,9-trimethyl-2^1H-5,12-dioxa-3,10-diaza-4(3,5)-pyridina-2(3,5)-pyrazola-1(1,3)-cyclopentanacyclododecaphan-11-one], the IC50 in assay [1] (Homo sapiens, OVCAR-3, 144 h) is above 250 nM; in assay [2] (setting [3]), above 250 nM.

On to `O=C1N[C@H](C(F)(F)F)CCCOc2cc(ccn2)Nc2cc(n[nH]2)[C@H]2CC[C@H](C2)O1` [Compound 127, (1^1S,1^3R,9S,Z)-9-(trifluoromethyl)-2^1H-5,12-dioxa-3,10-diaza-4(4,2)-pyridina-2(3,5)-pyrazola-1(1,3)-cyclopentanacyclododecaphan-11-one], for which the IC50 in assay [1] (Homo sapiens, OVCAR-3, 144 h) was above 250 nM; in assay [2] (setting [3]), above 250 nM. For the molecule `O=C1NC2CCN(CC2)c2cc(ccn2)Nc2cc(n[nH]2)[C@H]2CC[C@H](C2)O1` [Compound 136, (5^1S,5^3R,Z)-4^1H-6-oxa-3,8-diaza-2(2,4)-pyridina-1(1,4)-piperidina-4(5,3)-pyrazola-5(1,3)-cyclopentanacyclooctaphan-7-one], the half-maximal inhibitory concentration (IC50) in assay [1] (Homo sapiens, OVCAR-3, 144 h) is above 250 nM; in assay [2] (setting [3]), above 250 nM. With `C[C@H]1Oc2cc(ccn2)Nc2cc(n[nH]2)[C@H]2CC[C@H](C2)OC(=O)N[C@H]2C[C@@H]1C2` [Compound 143, (1^1S,1^3R,7^1S,7^3S,6R,Z)-6-methyl-2^1H-5,10-dioxa-3,8-diaza-4(4,2)-pyridina-2(3,5)-pyrazola-1(1,3)-cyclopentana-7(1,3)-cyclobutanacyclodecaphan-9-one], the IC50 in assay [1] (Homo sapiens, OVCAR-3, 144 h) lay in the range of 50 to 250 nM; in assay [2] (setting [3]), 50 to 250 nM. On to `CC1CCCNC(=O)OC2CCC(C2)c2cc([nH]n2)Nc2cc(c[n+]([O-])c2)O1` [Compound 153, (1^1S,1^3R,6R,Z)-6-methyl-11-oxo-2^1H-5,12-dioxa-3,10-diaza-4(3,5)-pyridin-1-iuma-2(3,5)-pyrazola-1(1,3)-cyclopentanacyclododecaphane 41-oxide], for which the 50% inhibitory concentration (IC50) in assay [1] and in assay [2] (24 hours) was above 250 nM each time. Consider `CC1CCCNC(=O)OC2CCC(C2)c2cc([nH]n2)Nc2cc(c[n+]([O-])c2)O1` [Compound 154, (1^1S,1^3R,6S,Z)-6-methyl-11-oxo-2^1H-5,12-dioxa-3,10-diaza-4(3,5)-pyridin-1-iuma-2(3,5)-pyrazola-1(1,3)-cyclopentanacyclododecaphane 41-oxide], for which the IC50 was above 250 nM in assay [1] and 50 to 250 nM in assay [2] (24 hours). `C[C@@H]1CCCNC(=O)O[C@@H]2CC[C@@H](C2)c2cc([nH]n2)Nc2cccc(c2)O1` [Compound 156, (1^1S,1^3R,6R,Z)-6-methyl-2^1H-5,12-dioxa-3,10-diaza-2(3,5)-pyrazola-4(1,3)-benzena-1(1,3)-cyclopentanacyclododecaphan-11-one]: the half-inhibitory concentration (IC50) in assay [1] (Homo sapiens, OVCAR-3, 144 h) is above 250 nM; in assay [2] (setting [3]) it was above 250 nM. As for `O=C1NCCCO[C@H](C(F)(F)F)c2cc(ccn2)Nc2cc(n[nH]2)[C@H]2CC[C@H](C2)O1` [Compound 160, (1^1S,1^3R,5S,Z)-5-(trifluoromethyl)-2^1H-6,12-dioxa-3,10-diaza-4(4,2)-pyridina-2(3,5)-pyrazola-1(1,3)-cyclopentanacyclododecaphan-11-one], the IC50 in assay [1] (Homo sapiens, OVCAR-3, 144 h) was in the range of 50 to 250 nM; in assay [2] (setting [3]), 50 to 250 nM. With `[2H]C1([2H])CC[C@H](C)NC(=O)O[C@@H]2CC[C@@H](C2)c2cc([nH]n2)Nc2cc(ncc2F)O1` [Compound 175, (1^1S,1^3R,9S,Z)-4^5-fluoro-9-methyl-2^1H-5,12-dioxa-3,10-diaza-4(4,2)-pyridina-2(3,5)-pyrazola-1(1,3)-cyclopentanacyclododecaphan-11-one-6,6-d2], the IC50 in assay [1] (Homo sapiens, OVCAR-3, 144 h) is above 250 nM; in assay [2] (setting [3]), above 250 nM.

Take `C[C@H]1CCCOc2cc(cc(F)n2)Nc2cc(n[nH]2)[C@H]2CC[C@H](C2)OC(=O)N1` [Compound 178, (1^1S,1^3R,9S,Z)-4^6-fluoro-9-methyl-2^1H-5,12-dioxa-3,10-diaza-4(4,2)-pyridina-2(3,5)-pyrazola-1(1,3)-cyclopentanacyclododecaphan-11-one]: the IC50 is 50 to 250 nM in assay [1] (Homo sapiens, OVCAR-3, 144 h) and 10 to 50 nM in assay [2] (setting [3]).

With `C[C@H]1CCCOc2ncc(F)c(c2F)Nc2cc(n[nH]2)[C@H]2CC[C@H](C2)OC(=O)N1` [Compound 180, (1^1S,1^3R,9S,Z)-4^3,4^5-difluoro-9-methyl-2^1H-5,12-dioxa-3,10-diaza-4(4,2)-pyridina-2(3,5)-pyrazola-1(1,3)-cyclopentanacyclododecaphan-11-one], the concentration for half-maximal inhibition (IC50) in assay [1] (Homo sapiens, OVCAR-3, 144 h) was above 250 nM; in assay [2] (setting [3]), above 250 nM. Take `C[C@@H]1NC(=O)O[C@H]2C[C@H](C[C@H]2F)c2cc([nH]n2)Nc2ccnc(c2)OCCC1(F)F` [Compound 226, (1^1R,1^3S,1^4R,9S,Z)-1^4,8,8-trifluoro-9-methyl-2^1H-5,12-dioxa-3,10-diaza-4(4,2)-pyridina-2(3,5)-pyrazola-1(1,3)-cyclopentanacyclododecaphan-11-one]: the IC50 in assay [2] (setting [3]) was in the range of 2 to 10 nM. Take `C[C@@H]1NC(=O)O[C@@H]2C[C@@H](C[C@@H]2F)c2cc([nH]n2)Nc2ccnc(c2)OCCC1(F)F` [Compound 227, (1^1S,1^3R,1^4S,9S,Z)-1^4,8,8-trifluoro-9-methyl-2^1H-5,12-dioxa-3,10-diaza-4(4,2)-pyridina-2(3,5)-pyrazola-1(1,3)-cyclopentanacyclododecaphan-11-one]: the IC50 in assay [2] (setting [3]) lay within 10 to 50 nM. Same read-out and setting: as for `C[C@@H]1NC(=O)O[C@H]2CC(C[C@H]2F)c2n[nH]c(c2F)Nc2ccnc(c2)OCCC1(F)F` [Compound 239, (1^1R,1^3S,1^4R,9S,E)-1^4,2^4,8,8-tetrafluoro-9-methyl-2^1H-5,12-dioxa-3,10-diaza-4(4,2)-pyridina-2(3,5)-pyrazola-1(1,3)-cyclopentanacyclododecaphan-11-one], the figure is 10 to 50 nM. For `C[C@@H]1NC(=O)O[C@@H]2CC(C[C@@H]2F)c2n[nH]c(c2F)Nc2ccnc(c2)OCCC1(F)F` [Compound 240, (1^1S,1^3R,1^4S,9S,E)-1^4,2^4,8,8-tetrafluoro-9-methyl-2^1H-5,12-dioxa-3,10-diaza-4(4,2)-pyridina-2(3,5)-pyrazola-1(1,3)-cyclopentanacyclododecaphan-11-one], the 50% inhibitory concentration (IC50) in assay [2] (setting [3]) fell in the range of 10 to 50 nM.

On to `C[C@H]1CCCOc2cncc(n2)Nc2cc(n[nH]2)C2C[C@@H](F)[C@H](C2)OC(=O)N1` [Compound 242, (1^1R,1^3S,1^4R,9S,Z)-1^4-fluoro-9-methyl-2^1H-5,12-dioxa-3,10-diaza-4(2,6)-pyrazina-2(3,5)-pyrazola-1(1,3)-cyclopentanacyclododecaphan-11-one], for which the IC50 in assay [2] (setting [3]) is at most 2 nM. Same read-out and setting: with `C[C@H]1CCCOc2cncc(n2)Nc2[nH]nc(c2F)C2C[C@@H](F)[C@H](C2)OC(=O)N1` [Compound 243, (1^1R,1^3S,1^4R,9S,E)-1^4,2^4-difluoro-9-methyl-2^1H-5,12-dioxa-3,10-diaza-4(2,6)-pyrazina-2(3,5)-pyrazola-1(1,3)-cyclopentanacyclododecaphan-11-one] the figure was at most 2 nM.

Broadly, the IC50 is the concentration needed to halve the response being measured.
